Results on twelve molecules are retold here after DBAASP.

Values after ≈ are worked out from the molar mass of the structure shown. Bounds are passed on as bounds.

Among the test systems are Bacillus cereus; Escherichia coli; Bacillus subtilis; Candida albicans; Staphylococcus aureus; Acinetobacter baumannii; Escherichia coli UB1005.
Experiment in all cases: ≥ marks a high value that may be exact or a test limit, other limits are often not marked, values filed in µg/mL are converted to µM
For test [1], the system named is Escherichia coli DH5alpha.
Test [2] relates to Pseudomonas aeruginosa ATCC 27853.
Test [3] concerns Staphylococcus aureus ATCC 25923.
In test [4] the test system is Klebsiella pneumoniae ATCC 700603.
In test [5] the test system is Pseudomonas aeruginosa ATCC 9027.
The subject of test [6] is Escherichia coli ATCC 25922.
Test [7] has as its system Bacillus subtilis ATCC 6633.
In test [8] the test system is Staphylococcus aureus ATCC 29213.
Test [9] concerns Staphylococcus epidermidis ATCC 12228.
In test [10] the test system is Salmonella enterica subsp. enterica serovar Typhimurium C77-31.
Test [11] concerns Acinetobacter baumannii ATCC 19606.

`CC[C@H](C)[C@H](NC(=O)[C@H](CCSC)NC(=O)[C@@H](NC(=O)[C@H](CCCCN)NC(=O)[C@H](CO)NC(=O)CNC(=O)[C@@H](NC(=O)[C@@H](NC(=O)[C@H](CCCCN)NC(=O)[C@@H](NC(=O)[C@@H]1CCCN1C(=O)[C@H](CO)NC(=O)[C@H](CCCCN)NC(=O)[C@H](CC(C)C)NC(=O)[C@@H]1CCCN1C(=O)[C@@H](NC(=O)[C@H](CCCN=C(N)N)NC(=O)[C@@H](N)CO)C(C)C)C(C)C)[C@@H](C)CC)C(C)C)C(C)C)C(=O)N[C@@H](Cc1ccccc1)C(=O)N[C@@H](C)C(=O)O` [SRVPLKSPVKIVGSKVMIFA]: the MIC is no less than 119 µM in the test on Bacillus cereus and greater than 119 µM in the test with Escherichia coli.

For the molecule `CC[C@H](C)[C@H](N)C(=O)N[C@@H](CC(N)=O)C(=O)N[C@@H](Cc1c[nH]c2ccccc12)C(=O)N[C@@H](CCCCN)C(=O)N[C@@H](CCCCN)C(=O)N[C@H](C(=O)N[C@@H](C)C(=O)N[C@@H](CO)C(=O)N[C@H](C(=O)NCC(=O)N[C@@H](CCCCN)C(=O)N[C@@H](CCC(=O)O)C(=O)N[C@H](C(N)=O)C(C)C)[C@@H](C)CC)[C@@H](C)CC` [INWKKIASIGKEV], the MIC against Escherichia coli is 100 µM (≈ 148 µg/mL); in the test with Bacillus subtilis, no less than 100 µM.

On to `CC(C)C[C@H](NC(=O)[C@@H](N)Cc1ccccc1)C(=O)N1CCC[C@H]1C(=O)N1CCC[C@H]1C(=O)N[C@@H](CO)C(=O)N1CCC[C@H]1C(=O)N[C@@H](Cc1c[nH]c2ccccc12)C(=O)N[C@@H](CCCCN)C(=O)N[C@@H](CCC(=O)O)C(=O)N[C@H](C(=O)N[C@@H](Cc1ccccc1)C(=O)N[C@@H](CCCN=C(N)N)C(=O)N[C@H](C(=O)N[C@@H](CO)C(=O)O)[C@@H](C)O)[C@@H](C)O` [FLPPSPWKETFRTS], for which the MIC against Candida albicans was 12.6 µM (≈ 21.3 µg/mL); against Escherichia coli, 25.1 µM (≈ 42.5 µg/mL); with Bacillus subtilis it was no less than 50.2 µM; in the test with Staphylococcus aureus, 12.6 µM (≈ 21.3 µg/mL).

`CC[C@H](C)[C@H](NC(=O)[C@H](Cc1ccccc1)NC(=O)[C@@H](NC(=O)[C@H](Cc1ccc(O)cc1)NC(=O)[C@H](CCCN=C(N)N)NC(=O)[C@H](CCCCN)NC(=O)[C@H](CCCN=C(N)N)NC(=O)[C@H](CCCCN)NC(=O)[C@H](Cc1c[nH]c2ccccc12)NC(=O)[C@H](CC(C)C)NC(=O)[C@@H](NC(=O)[C@@H](N)Cc1ccc(O)cc1)C(C)C)[C@@H](C)CC)C(=O)O` [YVLWKRKRYIFI]: the MIC in test [1] is 3.56 µM (≈ 6 µg/mL); in test [2], 8.9 µM (≈ 15 µg/mL); in the test on Bacillus subtilis it was 3.56 µM (≈ 6 µg/mL); in test [3], 1.78 µM (≈ 3 µg/mL).

For `CC[C@H](C)[C@H](NC(=O)CN)C(=O)N[C@@H](Cc1ccccc1)C(=O)NCC(=O)N[C@@H](CCCCN)C(=O)N[C@H](C(=O)N[C@@H](CC(C)C)C(=O)NCC(=O)N[C@H](C(=O)NCC(=O)N[C@@H](CCCCN)C(=O)N[C@@H](CCCCN)C(=O)N[C@H](C(=O)N[C@@H](CC(C)C)C(=O)N[C@H]1CSSC[C@@H](C(=O)O)NC(=O)[C@H](C(C)C)NC(=O)CNC(=O)[C@H](CO)NC(=O)[C@H](CC(C)C)NC(=O)CNC1=O)C(C)C)C(C)C)[C@@H](C)CC` [GIFGKILGVGKKVLCGLSGVC], the MIC against Candida albicans was determined as 5.76 µM (≈ 11.8 µg/mL); against Escherichia coli it was 11.5 µM (≈ 23.6 µg/mL); with Bacillus subtilis it was 2.88 µM (≈ 5.89 µg/mL); in the test with Staphylococcus aureus, 2.88 µM (≈ 5.89 µg/mL).

As to `CC(C)C[C@H](NC(=O)CNC(=O)[C@H](CCCCN)NC(=O)[C@@H](NC(=O)[C@H](CC(C)C)NC(=O)[C@@H](NC(=O)[C@H](Cc1ccccc1)NC(=O)[C@H](Cc1ccccc1)NC(=O)[C@H](CCCCN)NC(=O)[C@H](CCCCN)NC(=O)[C@H](C)NC(=O)[C@@H](NC(=O)[C@@H](N)C(C)C)C(C)C)C(C)C)C(C)C)C(=O)N[C@@H](C)C(=O)N1CCC[C@H]1C(=O)N[C@H](C(=O)N[C@@H](CC(C)C)C(=O)N[C@@H](CO)C(=O)N1CCC[C@H]1C(=O)N[C@@H](CO)C(=O)O)C(C)C` [VVAKKFFVLVKGLAPVLSPS], the minimal inhibitory concentration (MIC) in the test with Bacillus cereus was no less than 122 µM; against Escherichia coli it was greater than 122 µM.

Turning to `CC[C@H](C)[C@H](NC(=O)[C@H](CCCCN)NC(=O)[C@H](CCCCN)NC(=O)[C@@H](NC(=O)[C@H](CC(C)C)NC(=O)[C@H](CC(C)C)NC(=O)[C@H](CCCCN)NC(=O)CN)C(C)C)C(=O)N[C@H](C(=O)N[C@@H](CO)C(=O)N[C@@H](CC(C)C)C(=O)N[C@H](C(=O)N[C@@H](CCCN=C(N)N)C(=O)N[C@@H](CO)C(=O)N[C@@H](C)C(N)=O)C(C)C)C(C)C` [GKLLVKKIVSLVRSA], the MIC was greater than 25 µM in test [4]; greater than 25 µM in test [5]; greater than 25 µM in test [6]; 25 µM (≈ 40.3 µg/mL) with Acinetobacter baumannii; greater than 25 µM in test [3].

As for `CC(C)C[C@H](NC(=O)[C@@H]1CSSC[C@H](NC(=O)CNC(=O)[C@H](CCCN=C(N)N)NC(=O)[C@H](Cc2ccccc2)NC(=O)[C@H](C)NC(=O)[C@H](C)N)C(=O)N[C@@H](Cc2c[nH]c3ccccc23)C(=O)N[C@@H]([C@@H](C)O)C(=O)N[C@@H](CCCCN)C(=O)N[C@@H](CC(N)=O)C(=O)N[C@@H](Cc2ccc(O)cc2)C(=O)N[C@@H](CO)C(=O)N2CCC[C@H]2C(=O)N[C@@H](CCCCN)C(=O)N2CCC[C@H]2C(=O)N1)C(=O)O` [AAFRGCWTKNYSPKPCL], the MIC in [7] stood at 25.8 µM (≈ 50.1 µg/mL); in [3], 51.5 µM (≈ 99.9 µg/mL).

Turning to `CC[C@H](C)[C@H](NC(=O)[C@H](C)NC(=O)[C@H](CCCCN)NC(=O)[C@H](CC(C)C)NC(=O)[C@@H](NC(=O)[C@H](CCCCN)NC(=O)CNC(=O)[C@@H](NC(=O)[C@H](CCCCN)NC(=O)[C@H](CCCCN)NC(=O)[C@H](CC(C)C)NC(=O)[C@H](CCCN=C(N)N)NC(=O)[C@H](CCCCN)NC(=O)[C@H](CCCN=C(N)N)NC(=O)[C@@H](NC(=O)[C@H](CCCCN)NC(=O)[C@H](CCCCN)NC(=O)[C@H](CCCN=C(N)N)NC(=O)[C@H](CC(C)C)NC(=O)[C@H](CCCN=C(N)N)NC(=O)[C@H](CCCN=C(N)N)NC(=O)[C@H](Cc1ccccc1)NC(=O)[C@H](CCCN=C(N)N)NC(=O)CN)[C@@H](C)O)[C@@H](C)CC)C(C)C)C(N)=O` [GRFRRLRKKTRKRLKKIGKVLKAI], the MIC is 16 µM (≈ 47.2 µg/mL) in [6]; 128 µM (≈ 378 µg/mL) in [8]; 128 µM (≈ 378 µg/mL) in [9]; 16 µM (≈ 47.2 µg/mL) in the test on Escherichia coli UB1005; no less than 128 µM in test [10]; 128 µM (≈ 378 µg/mL) in [3].

As for `CC[C@H](C)[C@H](NC(=O)[C@H](CCCNC(=N)N)NC(=O)[C@@H](NC(=O)[C@@H](NC(=O)[C@@H]1CCCN1C(=O)[C@@H](NC(=O)[C@@H](NC(=O)[C@@H](NC(=O)[C@@H]1CCCN1C(=O)CNC(=O)[C@H](Cc1ccc(O)cc1)NC(=O)[C@H](CCCCN)NC(=O)[C@H](CCCCN)NC(=O)[C@H](Cc1c[nH]c2ccccc12)NC(=O)[C@H](C)NC(=O)[C@H](CCCNC(=N)N)NC(=O)[C@H](CC(C)C)NC(=O)[C@@H](NC(=O)[C@H](CCCCN)NC(=O)[C@H](CCCNC(=N)N)NC(=O)CNC(=O)[C@H](CC(C)C)NC(=O)[C@H](CO)NC(=O)[C@H](CCCNC(=N)N)NC(=O)[C@H](CC(C)C)NC(=O)CNC(=O)CN)[C@@H](C)CC)[C@@H](C)CC)[C@@H](C)CC)C(C)C)[C@@H](C)CC)[C@@H](C)CC)C(N)=O` [GGLRSLGRKILRAWKKYGPIIVPIIRI], the MIC is 2.3 µM (≈ 7.07 µg/mL) with Acinetobacter baumannii and 1.63 µM (≈ 5 µg/mL) in [11].

`CC(C)C[C@H](NC(=O)[C@H](CCC(=O)O)NC(=O)[C@H](CC(C)C)NC(=O)[C@H](CO)NC(=O)[C@H](CC(=O)O)NC(=O)[C@H](Cc1ccc(O)cc1)NC(=O)[C@H](CCCN=C(N)N)NC(=O)[C@H](Cc1ccc(O)cc1)NC(=O)CNC(=O)[C@H](Cc1ccccc1)NC(=O)[C@H](CCCCN)NC(=O)[C@H](CCCCN)NC(=O)[C@H](Cc1ccc(O)cc1)NC(=O)[C@H](CC(=O)O)NC(=O)[C@H](Cc1ccccc1)NC(=O)[C@@H](NC(=O)[C@@H](N)CC(=O)O)[C@@H](C)O)C(=O)N[C@@H](CCC(=O)O)C(=O)NCC(=O)N[C@@H](CCCN=C(N)N)C(=O)O` [DTFDYKKFGYRYDSLELEGR] gave an MIC against Bacillus subtilis of 0.548 µM (≈ 1.37 µg/mL).

Consider `CC(C)C[C@H](NC(=O)[C@H](CCCCN)NC(=O)[C@H](CC(C)C)NC(=O)[C@H](C)NC(=O)[C@H](CC(C)C)NC(=O)[C@H](CCCCN)NC(=O)[C@H](CCCCN)NC(=O)[C@H](CC(C)C)NC(=O)[C@H](CC(C)C)NC(=O)[C@H](CCCCN)NC(=O)[C@H](Cc1c[nH]c2ccccc12)NC(=O)[C@@H](NC(=O)[C@H](CC(C)C)NC(=O)[C@H](CCCCN)NC(=O)[C@@H](N)Cc1ccccc1)C(C)C)C(=O)O` [FKLVWKLLKKLALKL], for which the MIC in [4] was 64 µM (≈ 118 µg/mL); in test [5] it was greater than 64 µM; in test [6], greater than 64 µM; in the test on Acinetobacter baumannii it was no less than 64 µM; in test [3], 32 µM (≈ 58.9 µg/mL).
